Literature values in US20190083649A1, “CROSSLINKED POLYMER NANO-ASSEMBLIES AND USES THEREOF” (University of Massachusetts, priority 2017, published 2019).

pKa of the protonated form of the amine: around 6.2
SMILES: C=C(C)C(=O)OCCN(C(C)C)C(C)C [DPA, 2-(diisopropylamino)ethyl methacrylate]
